Results reported in PubChem BioAssay AID1845195 (Molecular Pharmacology Branch, DTP, NCI, 2023).
pIC50: −log10 of the molar value.

Test system: 156681-154-R-J1 tumor spheroid viability
Assay: Anticancer human tumor 156681-154-R-J1 patient-derived melanoma cell line growth inhibition
Conditions: spheroids with HUVEC and MSC; for pIC50: curve of first compound; for viability, T/C: stronger effect = lower value
Procedure, shortened: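 Complex tumor spheroids combined malignant cells with endothelial cells and mesenchymal stem cells. DNA-damaging drugs and DNA repair inhibitors were tested alone and in combination, at half-log dilutions down from clinical Cmax (top 10 microM if Cmax unknown), 0.25% DMSO final.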

[1] = second compound 1 µM, first compound 0.00949 µM
[2] = second compound 1 µM, first compound 0.03 µM
[3] = second compound 1 µM, first compound 0.0949 µM
[4] = second compound 1 µM, first compound 0.3 µM
[5] = second compound 1 µM, first compound 0.949 µM
[6] = second compound 1 µM, first compound 3 µM
[7] = second compound 3.16 µM, first compound 0.00949 µM
[8] = second compound 3.16 µM, first compound 0.03 µM
[9] = second compound 3.16 µM, first compound 0.0949 µM
[10] = second compound 3.16 µM, first compound 0.3 µM
[11] = second compound 3.16 µM, first compound 0.949 µM
[12] = second compound 3.16 µM, first compound 3 µM
[13] = second compound 10 µM, first compound 0.00949 µM
[14] = second compound 10 µM, first compound 0.03 µM
[15] = second compound 10 µM, first compound 0.0949 µM
[16] = second compound 10 µM, first compound 0.3 µM
[17] = second compound 10 µM, first compound 0.949 µM
[18] = second compound 10 µM, first compound 3 µM
[19] = second compound 31.6 µM, first compound 0.00949 µM
[20] = second compound 31.6 µM, first compound 0.03 µM
[21] = second compound 31.6 µM, first compound 0.0949 µM
[22] = second compound 31.6 µM, first compound 0.3 µM
[23] = second compound 31.6 µM, first compound 0.949 µM
[24] = second compound 31.6 µM, first compound 3 µM
[25] = second compound 100 µM, first compound 0.00949 µM
[26] = second compound 100 µM, first compound 0.03 µM
[27] = second compound 100 µM, first compound 0.0949 µM
[28] = second compound 100 µM, first compound 0.3 µM
[29] = second compound 100 µM, first compound 0.949 µM
[30] = second compound 100 µM, first compound 3 µM
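Note: spheroids exposed to compounds for 7 days before readout.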
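Throughout, for viability, T/C: percent of vehicle control viability where 100% = DMSO-treated spheroids.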

With `CNCc1ccc(-c2cc(-c3nc(-c4ccc(S(=O)(=O)C(C)C)cc4)cnc3N)on2)cc1` + Cn1nnc2c(C(N)=O)ncn2c1=O the pIC50 (second compound 1 µM) was 5.91, the pIC50 (second compound 3.16 µM) was 6.04 and the pIC50 (second compound 10 µM) was 6.14. For the same molecule, the pIC50 (second compound 31.6 µM) was 6.31, the pIC50 (second compound 100 µM) was 7.09 and the viability, T/C [1] was 107%. The viability, T/C [2] was 100%, the viability, T/C [3] was 98.8% and the viability, T/C [4] was 75.5%. For the same molecule, the viability, T/C [5] was 62.3%, the viability, T/C [6] was 19% and the viability, T/C [7] was 88.2%. It also gave a viability, T/C [8] of 100%, a viability, T/C [9] of 90% and a viability, T/C [10] of 72.6%. For the same molecule, the viability, T/C [11] was 50.7%, the viability, T/C [12] was 16.8% and the viability, T/C [13] was 93.6%. The viability, T/C [14] was 73.9%, the viability, T/C [15] was 80.7% and the viability, T/C [16] was 64.8%. For the same molecule, the viability, T/C [17] was 46%, the viability, T/C [18] was 11.1% and the viability, T/C [19] was 63.5%. The viability, T/C [20] was 65.1%, the viability, T/C [21] was 59.5% and the viability, T/C [22] was 59.8%. For the same molecule, the viability, T/C [23] was 38%, the viability, T/C [24] was 5.46% and the viability, T/C [25] was 54.2%. It also gave a viability, T/C [26] of 53%, a viability, T/C [27] of 54.1% and a viability, T/C [28] of 34.6%. It also gave a viability, T/C [29] of 22.1% and a viability, T/C [30] of 1.01%.
`Cc1sc2c(c1C)C(c1ccc(Cl)cc1)=NC(CC(=O)Nc1ccc(O)cc1)c1nnc(C)n1-2` (stereo not given) + Cn1nnc2c(C(N)=O)ncn2c1=O was tested, and the pIC50 (second compound 1 µM) was under 5.52, the pIC50 (second compound 3.16 µM) was 6.07 and the pIC50 (second compound 10 µM) was 6.89. The pIC50 (second compound 31.6 µM) was 7.69, the pIC50 (second compound 100 µM) was 7.83 and the viability, T/C [1] was 92%. The viability, T/C [2] was 76%, the viability, T/C [3] was 81.5% and the viability, T/C [4] was 80.7%. The viability, T/C [5] was 70.9%, the viability, T/C [6] was 57% and the viability, T/C [7] was 90.3%. For the same molecule, the viability, T/C [8] was 70.2%, the viability, T/C [9] was 76.4% and the viability, T/C [10] was 54.9%. For the same molecule, the viability, T/C [11] was 52.4%, the viability, T/C [12] was 37.4% and the viability, T/C [13] was 79.1%. It also gave a viability, T/C [14] of 75.5%, a viability, T/C [15] of 47.9% and a viability, T/C [16] of 41.3%. It also gave a viability, T/C [17] of 35.6%, a viability, T/C [18] of 24.4% and a viability, T/C [19] of 62.3%. It also gave a viability, T/C [20] of 43%, a viability, T/C [21] of 31.8% and a viability, T/C [22] of 29%. It also gave a viability, T/C [23] of 22.6%, a viability, T/C [24] of 18.6% and a viability, T/C [25] of 53.4%. It also gave a viability, T/C [26] of 44.5%, a viability, T/C [27] of 26.4% and a viability, T/C [28] of 13.6%. For the same molecule, the viability, T/C [29] was 12.3% and the viability, T/C [30] was 11.7%.
In the case of `Cn1ncnc1[C@H]1c2n[nH]c(=O)c3cc(F)cc(c23)N[C@@H]1c1ccc(F)cc1` + Cn1nnc2c(C(N)=O)ncn2c1=O, the pIC50 (second compound 1 µM) was 6.01, the pIC50 (second compound 3.16 µM) was 6.23 and the pIC50 (second compound 10 µM) was 6.57. For the same molecule, the pIC50 (second compound 31.6 µM) was over 8.02, the pIC50 (second compound 100 µM) was over 8.02 and the viability, T/C [1] was 78.4%. The viability, T/C [2] was 83.7%, the viability, T/C [3] was 75% and the viability, T/C [4] was 72.7%. It also gave a viability, T/C [5] of 50.5%, a viability, T/C [6] of 16.6% and a viability, T/C [7] of 69%. For the same molecule, the viability, T/C [8] was 74.4%, the viability, T/C [9] was 71% and the viability, T/C [10] was 64.1%. For the same molecule, the viability, T/C [11] was 40%, the viability, T/C [12] was 15.2% and the viability, T/C [13] was 81.1%. For the same molecule, the viability, T/C [14] was 88.4%, the viability, T/C [15] was 54.6% and the viability, T/C [16] was 50%. It also gave a viability, T/C [17] of 33.7%, a viability, T/C [18] of 13.6% and a viability, T/C [19] of 44.4%. The viability, T/C [20] was 35.4%, the viability, T/C [21] was 34.9% and the viability, T/C [22] was 29.6%. The viability, T/C [23] was 17%, the viability, T/C [24] was 18% and the viability, T/C [25] was 16.3%. For the same molecule, the viability, T/C [26] was 14.4%, the viability, T/C [27] was 12.2% and the viability, T/C [28] was 11.3%. It also gave a viability, T/C [29] of 14% and a viability, T/C [30] of 14.4%.
Molecule `O=C(c1cc(Cc2n[nH]c(=O)c3ccccc23)ccc1F)N1CCN(C(=O)C2CC2)CC1` + Cn1nnc2c(C(N)=O)ncn2c1=O has a pIC50 (second compound 1 µM) of under 4.52, a pIC50 (second compound 3.16 µM) of 4.74 and a pIC50 (second compound 10 µM) of 4.83. The pIC50 (second compound 31.6 µM) was 5.92, the pIC50 (second compound 100 µM) was over 7.02 and the viability, T/C [3] was 92.1%. For the same molecule, the viability, T/C [4] was 74.6%, the viability, T/C [5] was 97.5% and the viability, T/C [6] was 80.2%. The viability, T/C (second compound 1 µM, first compound 9.49 µM) was 66.5%, the viability, T/C (second compound 1 µM, first compound 30 µM) was 50.3% and the viability, T/C [9] was 81.1%. For the same molecule, the viability, T/C [10] was 86.4%, the viability, T/C [11] was 78.3% and the viability, T/C [12] was 74.2%. It also gave a viability, T/C (second compound 3.16 µM, first compound 9.49 µM) of 52.1%, a viability, T/C (second compound 3.16 µM, first compound 30 µM) of 48.3% and a viability, T/C [15] of 85.2%. It also gave a viability, T/C [16] of 81.3%, a viability, T/C [17] of 70.5% and a viability, T/C [18] of 68.5%. For the same molecule, the viability, T/C (second compound 10 µM, first compound 9.49 µM) was 55.6%, the viability, T/C (second compound 10 µM, first compound 30 µM) was 40.9% and the viability, T/C [21] was 69%. For the same molecule, the viability, T/C [22] was 63.3%, the viability, T/C [23] was 48.4% and the viability, T/C [24] was 44.5%. It also gave a viability, T/C (second compound 31.6 µM, first compound 9.49 µM) of 35.6%, a viability, T/C (second compound 31.6 µM, first compound 30 µM) of 27.4% and a viability, T/C [27] of 36.8%. For the same molecule, the viability, T/C [28] was 34.4%, the viability, T/C [29] was 27.4% and the viability, T/C [30] was 22.6%. The viability, T/C (second compound 100 µM, first compound 9.49 µM) was 15.1% and the viability, T/C (second compound 100 µM, first compound 30 µM) was 21.6%.
